≈ marks a conversion by molar mass, not a printed value. Bridge positions count the residues as written; N and C are the ends. Square brackets hold non-standard residues; d marks the D form. Ends that are not written are not given here. Peptide text beside a SMILES is read from it. Dab = NCC[C@H](N)C(=O)O
Assays:
[1] = tested on: Botrytis cinerea
[2] = tested on: B. cinerea; test: Drop inoculation assay on detached Nicotiana benthamiana leaves (semi-in planta); type: in vivo, Botrytis cinerea; details: 48 h
[3] = tested on: Cercospora sojina
[4] = tested on: Colletotrichum gloeosporioides
[5] = tested on: Alternaria alternata

Compound	MIC (μM) (SFM + 2 mM CaCl2) [1]	MIC (μM) (SFM + 100 mM KCl) [1]	MIC (μM) (SFM + 100 mM NaCl) [1]	MIC (μM) SFM [1]	Gray mold symptoms, drop inoculation assay ([2]; peptide at 3 μM and 6 μM)	further results
C[C@@H](O)[C@H](NC(=O)[C@H](CS)NC(=O)[C@H](Cc1c[nH]c2ccccc12)NC(=O)[C@H](CS)NC(=O)[C@H](CCCNC(=N)N)NC(=O)[C@H](Cc1ccccc1)NC(=O)[C@H](CC(=O)O)NC(=O)[C@H](CC(=O)O)NC(=O)[C@H](CCCNC(=N)N)NC(=O)[C@H](CS)NC(=O)[C@H](CCCNC(=N)N)NC(=O)CN)C(=O)N[C@@H](CCCCN)C(=O)N[C@@H](CC(N)=O)C(=O)N[C@@H](CS)C(=O)O [GMA1C, reference compound] (H-GRCRDDFRCWCTKNC-OH; N-terminus assumed)	>12 µM	>12 µM	>12 µM	>12 µM	–	–
CC[C@H](C)[C@H](NC(=O)[C@H](CCCNC(=N)N)NC(=O)[C@H](CS)NC(=O)[C@H](CCCNC(=N)N)NC(=O)CNC(=O)[C@@H](N)CO)C(=O)N[C@@H](CC(C)C)C(=O)N[C@@H](Cc1ccccc1)C(=O)N[C@@H](CCCNC(=N)N)C(=O)N[C@@H](CS)C(=O)N[C@@H](Cc1ccccc1)C(=O)N[C@@H](CS)C(=O)N[C@H](C(=O)N[C@@H](CCCCN)C(=O)N[C@@H](CC(N)=O)C(=O)N[C@@H](CS)C(N)=O)[C@@H](C)O [GMA1C_V1] (H-SGRCRILFRCFCTKNC-NH2; N-terminus assumed)	–	>12 µM	>6 µM	>6 µM	–	–
CC[C@H](C)[C@@H]1NC(=O)[C@H](CCCNC(=N)N)NC(=O)[C@@H](NC(=O)[C@H](CCCNC(=N)N)NC(=O)CNC(=O)[C@@H](N)CO)CSSC[C@@H](C(N)=O)NC(=O)[C@H](CC(N)=O)NC(=O)[C@H](CCCCN)NC(=O)[C@H]([C@@H](C)O)NC(=O)[C@H](Cc2c[nH]c3ccccc23)NC(=O)[C@H](Cc2ccccc2)NC(=O)[C@H](Cc2c[nH]c3ccccc23)NC(=O)[C@H](CCCNC(=N)N)NC(=O)[C@H](Cc2ccccc2)NC(=O)[C@H](CC(C)C)NC1=O [GMA1C_V2] (H-SGRCRILFRWFWTKNC-NH2; disulfide 4-16; N-terminus assumed)	3 µM	>12 µM	3 µM	1.5 to 3 µM	completely abrogated gray mold symptoms	Gray mold symptoms, drop inoculation assay ([2]; peptide at 1.5 μM): more effective than GMA1C_V1
CC[C@H](C)[C@@H]1NC(=O)[C@H](CCCNC(=N)N)NC(=O)[C@@H](NC(=O)[C@H](CCCNC(=N)N)NC(=O)CNC(=O)[C@@H](N)CO)CSSC[C@@H](C(N)=O)NC(=O)[C@H](CC(N)=O)NC(=O)[C@H](CCCCN)NC(=O)[C@H]([C@@H](C)O)NC(=O)[C@H](Cc2ccccc2)NC(=O)[C@H](Cc2ccc(O)cc2)NC(=O)[C@H](Cc2c[nH]c3ccccc23)NC(=O)[C@H](CCCNC(=N)N)NC(=O)[C@H](Cc2ccccc2)NC(=O)[C@H](CC(C)C)NC1=O [GMA1C_V3] (H-SGRCRILFRWYFTKNC-NH2; disulfide 4-16; N-terminus assumed)	6 µM	>12 µM	3 µM	1.5 µM (≈ 3.07 µg/mL)	–	–
C[C@@H](O)[C@H](NC(=O)[C@H](CS)NC(=O)[C@H](Cc1ccccc1)NC(=O)[C@H](CS)NC(=O)[C@H](CCCNC(=N)N)NC(=O)[C@H](CCCNC(=N)N)NC(=O)[C@H](CCCNC(=N)N)NC(=O)[C@H](Cc1ccccc1)NC(=O)CNC(=O)[C@H](CCCNC(=N)N)NC(=O)[C@H](CS)NC(=O)[C@H](CCCNC(=N)N)NC(=O)CN)C(=O)N[C@H](C(=O)N[C@@H](Cc1c[nH]cn1)C(=O)N[C@@H](CS)C(N)=O)[C@@H](C)O [GMA4AC, reference compound] (H-GRCRGFRRRCFCTTHC-NH2)	–	–	–	–	–	MIC, Cercospora sojina [3]: >12 µM; MIC, Colletotrichum gloeosporioides [4]: >12 µM; MIC, Alternaria alternata [5]: >12 µM
C[C@@H](O)[C@H](NC(=O)[C@H](CS)NC(=O)[C@H](Cc1ccccc1)NC(=O)[C@H](CS)NC(=O)[C@H](CCCNC(=N)N)NC(=O)[C@H](CCCNC(=N)N)NC(=O)[C@H](CCCNC(=N)N)NC(=O)[C@H](Cc1ccccc1)NC(=O)CNC(=O)[C@H](CCCNC(=N)N)NC(=O)[C@H](CS)NC(=O)[C@H](CCCNC(=N)N)NC(=O)CN)C(=O)N[C@H](C(=O)N[C@@H](Cc1c[nH]cn1)C(=O)N[C@@H](CS)C(N)=O)[C@@H](C)O [GMA4AC] (H-GRCRGFRRRCFCTTHC-NH2)	–	–	–	3 µM (≈ 5.88 µg/mL)	–	–
N=C(N)NCCC[C@H](NC(=O)CNC(=O)[C@@H](N)Cc1ccccc1)C(=O)N[C@@H](CS)C(=O)N[C@@H](CCCNC(=N)N)C(=O)NCC(=O)N[C@@H](Cc1ccccc1)C(=O)N[C@@H](CCCNC(=N)N)C(=O)N[C@@H](CCCNC(=N)N)C(=O)N[C@@H](CCCNC(=N)N)C(=O)N[C@@H](CS)C(=O)N[C@@H](Cc1ccccc1)C(=O)N[C@@H](CS)C(=O)N[C@@H](Cc1c[nH]c2ccccc12)C(=O)N[C@@H](CCCNC(=N)N)C(=O)N[C@@H](Cc1c[nH]c2ccccc12)C(=O)N[C@@H](CS)C(=O)O [GMA4C_V4] (H-FGRCRGFRRRCFCWRWC-OH; N-terminus assumed)	–	–	–	–	–	B. cinerea MIC [1]: 1.5 µM; MIC (μM) Botrytis cinerea [1]: 3 µM (≈ 6.89 µg/mL); SFM + 2 mM CaCl2 MIC [1]: 6 µM; SFM + 100 mM KCl MIC [1]: 3 µM; SFM + 100 mM NaCl MIC [1]: 3 µM; SFM MIC [1]: 3 µM
NCC[C@H](NC(=O)CNC(=O)[C@@H](N)Cc1ccccc1)C(=O)N[C@@H](CS)C(=O)N[C@@H](CCN)C(=O)NCC(=O)N[C@@H](Cc1ccccc1)C(=O)N[C@@H](CCN)C(=O)N[C@@H](CCN)C(=O)N[C@@H](CCN)C(=O)N[C@@H](CS)C(=O)N[C@@H](Cc1ccccc1)C(=O)N[C@@H](CS)C(=O)N[C@@H](Cc1c[nH]c2ccccc12)C(=O)N[C@@H](CCN)C(=O)N[C@@H](Cc1c[nH]c2ccccc12)C(=O)N[C@@H](CS)C(=O)O [GMA4C_V5, FG(Dab)C(Dab)GF(Dab)(Dab)(Dab)CFCW(Dab)WC] (H-FG[Dab]C[Dab]GF[Dab][Dab][Dab]CFCW[Dab]WC-OH; N-terminus assumed)	–	–	–	–	–	B. cinerea MIC [1]: 1.5 µM; MIC (μM) Botrytis cinerea [1]: 6 µM (≈ 11.8 µg/mL); SFM + 2 mM CaCl2 MIC [1]: >6 µM; SFM + 100 mM KCl MIC [1]: >6 µM; SFM + 100 mM NaCl MIC [1]: 6 µM; SFM MIC [1]: 6 µM
C[C@H](NC(=O)CN)C(=O)N[C@@H](CS)C(=O)N[C@@H](Cc1c[nH]cn1)C(=O)N[C@@H](CCCNC(=N)N)C(=O)N[C@@H](CCC(N)=O)C(=O)NCC(=O)N[C@@H](Cc1ccccc1)C(=O)NCC(=O)N[C@@H](Cc1ccccc1)C(=O)N[C@@H](C)C(=O)N[C@@H](CS)C(=O)N[C@@H](Cc1ccccc1)C(=O)N[C@@H](CS)C(=O)N[C@@H](Cc1ccc(O)cc1)C(=O)N[C@@H](CCCCN)C(=O)N[C@@H](CCCCN)C(=O)N[C@@H](CS)C(N)=O [GMA5CA_WT, reference compound] (H-GACHRQGFGFACFCYKKC-NH2; N-terminus assumed)	>12 µM	>12 µM	>12 µM	6 µM (≈ 12.2 µg/mL)	–	–
CC(C)C[C@@H]1NC(=O)[C@@H](NC(=O)[C@H](C)NC(=O)CN)CSSC[C@@H](C(=O)N[C@@H](Cc2ccc(O)cc2)C(N)=O)NC(=O)[C@H](Cc2c[nH]cn2)NC(=O)[C@H](CCCNC(=N)N)NC(=O)[C@H](Cc2ccc(O)cc2)NC(=O)[C@H](Cc2ccc(O)cc2)NC(=O)[C@H](Cc2c[nH]c3ccccc23)NC(=O)[C@H](Cc2ccccc2)NC(=O)[C@H](Cc2c[nH]c3ccccc23)NC(=O)CNC(=O)[C@H](Cc2ccc(O)cc2)NC(=O)[C@H](Cc2c[nH]cn2)NC(=O)[C@H](CCCCN)NC(=O)[C@H](CO)NC(=O)[C@H](Cc2c[nH]cn2)NC(=O)[C@H](CCCNC(=N)N)NC(=O)[C@H](CC(N)=O)NC(=O)[C@H](CCCCN)NC1=O [GMAOe1C_V3] (H-GACLKNRHSKHYGWFWYYRHCY-NH2; disulfide 3-21; N-terminus assumed)	3 to 6 µM	6 to 12 µM	2 to 3 µM	1.5 µM (≈ 4.31 µg/mL)	completely abrogated gray mold symptoms	Gray mold symptoms, drop inoculation assay ([2]; peptide at 1.5 μM): more effective than GMAOe1C_V4 or GMAOe1C_WT
CC(C)C[C@@H]1NC(=O)[C@@H](NC(=O)[C@H](C)NC(=O)CN)CSSC[C@@H](C(=O)N[C@@H](Cc2ccc(O)cc2)C(N)=O)NC(=O)[C@H](Cc2c[nH]cn2)NC(=O)[C@H](CCCNC(=N)N)NC(=O)[C@H](Cc2ccc(O)cc2)NC(=O)[C@H](Cc2ccc(O)cc2)NC(=O)[C@H](Cc2c[nH]c3ccccc23)NC(=O)[C@H](Cc2ccccc2)NC(=O)[C@H](Cc2ccccc2)NC(=O)CNC(=O)[C@H](Cc2ccc(O)cc2)NC(=O)[C@H](Cc2c[nH]cn2)NC(=O)[C@H](CCCCN)NC(=O)[C@H](CO)NC(=O)[C@H](Cc2c[nH]cn2)NC(=O)[C@H](CCCNC(=N)N)NC(=O)[C@H](CC(N)=O)NC(=O)[C@H](CCCCN)NC1=O [GMAOe1C_V4] (H-GACLKNRHSKHYGFFWYYRHCY-NH2; disulfide 3-21; N-terminus assumed)	6 to 12 µM	6 to 12 µM	6 µM	1.5 µM (≈ 4.25 µg/mL)	completely abrogated gray mold symptoms	–
CC(C)C[C@H](NC(=O)[C@H](CS)NC(=O)[C@H](C)NC(=O)CN)C(=O)N[C@@H](CCCCN)C(=O)N[C@@H](CC(N)=O)C(=O)N[C@@H](CCCNC(=N)N)C(=O)N[C@@H](Cc1c[nH]cn1)C(=O)N[C@@H](CO)C(=O)N[C@@H](CCCCN)C(=O)N[C@@H](Cc1c[nH]cn1)C(=O)N[C@@H](Cc1ccc(O)cc1)C(=O)NCC(=O)N[C@@H](CS)C(=O)N[C@@H](Cc1ccc(O)cc1)C(=O)N[C@@H](CS)C(=O)N[C@@H](Cc1ccc(O)cc1)C(=O)N[C@@H](Cc1ccc(O)cc1)C(=O)N[C@@H](CCCNC(=N)N)C(=O)N[C@@H](Cc1c[nH]cn1)C(=O)N[C@@H](CS)C(=O)N[C@@H](Cc1ccc(O)cc1)C(N)=O [GMAOe1C_WT, reference compound] (H-GACLKNRHSKHYGCYCYYRHCY-NH2; N-terminus assumed)	>12 µM	6 to 12 µM	3 to 6 µM	3 µM (≈ 8.18 µg/mL)	only effective at 6 μM	–
GACLKNRHSKHYGWFWYYRHCY-NH2 (cysteine pairing not given here) [GMAOe1C_V2]	–	–	–	–	completely abrogated gray mold symptoms	–

Reference: patent publication US20220408731A1, “MODIFIED ANTIMICROBIAL PEPTIDES” (priority 2021, published 2022)
